The values that follow come from patent publication US20250163104A1, “MACROCYCLIC IMMUNOMODULATORS” (priority 2021, published 2025).

*1 amine or outer side, *2 acyl side, *3 side chain or, on linkers, in order; H or OH if unused. Where a SMILES comes first, the peptide text is derived from it. Bridges are numbered along the chain shown (N, C = ends). [ ]: non-standard residue; d: D form. The star is where a group is joined. ξ: configuration not given here. Phe(3-CF3) = N[C@@H](Cc1cccc(C(F)(F)F)c1)C(=O)O; Ala(morpholin-4-yl) = N[C@@H](CN1CCOCC1)C(=O)O; Phe(4-COOH) = N[C@@H](Cc1ccc(C(=O)O)cc1)C(=O)O; Bip = N[C@@H](Cc1ccc(-c2ccccc2)cc1)C(=O)O; Phe(3-Me) = Cc1cccc(C[C@H](N)C(=O)O)c1; γGlu = O=C(O)[C@H](CCC(=O)[*:2])N[*:1]; aIle = CC[C@@H](C)[C@H](N)C(=O)O; hPhe = N[C@@H](CCc1ccccc1)C(=O)O; 4Pal = N[C@@H](Cc1ccncc1)C(=O)O; Cha = N[C@@H](CC1CCCCC1)C(=O)O; Cit = NC(=O)NCCC[C@H](N)C(=O)O; dCha = N[C@H](CC1CCCCC1)C(=O)O; Thr(3ξ) = CC(O)[C@H](N)C(=O)O; Carboxymethyl = O=C(O)C*; Nle = CCCC[C@H](N)C(=O)O; Orn = NCCC[C@H](N)C(=O)O; Pra = C#CC[C@H](N)C(=O)O; Dab = NCC[C@H](N)C(=O)O; Dap = NC[C@H](N)C(=O)O

The target in the experiment is T1, human PD-1 / PD-L1-Ig binding on Jurkat cell line over-expressing human PD-1 (Jurkat-PD-1) (Homo sapiens, UniProt Q15116).
T1 construct: expressed in transfected cells; host or cells: Jurkat
Description: Jurkat-PD-1 Cell Binding High-Content Screening Assay (CBA). The format is cell-based. The note with it: Jurkat-PD-1 cells, PE-labeled PD-L1-Ig 20 nM final; read-out: Jurkat HPD1_PDL1 IC50. In outline: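 Binding of fluorescent PD-L1-Ig (phycoerythrin linked via the Ig tag, 20 nM final) to PD-1-overexpressing Jurkat cells was imaged after a 2 h, 37° C compound pretreatment and 1 hour ligand incubation.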

T1 sequence (Q15116 25-288): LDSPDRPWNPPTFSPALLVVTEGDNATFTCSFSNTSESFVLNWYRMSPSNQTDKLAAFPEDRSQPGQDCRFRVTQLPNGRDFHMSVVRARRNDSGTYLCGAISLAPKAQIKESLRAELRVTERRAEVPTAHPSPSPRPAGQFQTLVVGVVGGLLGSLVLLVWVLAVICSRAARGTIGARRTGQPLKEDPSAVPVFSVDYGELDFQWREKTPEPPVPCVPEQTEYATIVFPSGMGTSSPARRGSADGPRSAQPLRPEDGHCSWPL

Take `CC(C)C[C@H]1NC(=O)[C@H](CCCN)NC(=O)[C@H](Cc2ccc(C(=O)O)cc2)NC(=O)[C@H](Cc2ccc(-c3ccccc3)cc2)NC(=O)[C@H](CCc2ccccc2)NC(=O)[C@H](Cc2cccc(C(F)(F)F)c2)NC(=O)[C@H](CC(=O)O)NC(=O)[C@H](Cc2ccc(C(=O)O)cc2)NC(=O)[C@H](CN2CCOCC2)NC(=O)CSC[C@@H](C(=O)N[C@@H](CCN)C(N)=O)NC(=O)[C@H](CCC(=O)O)NC(=O)[C@H](C(C)C)NC(=O)[C@H](CC2CCCCC2)NC(=O)[C@H](CCN)NC1=O` [Example 2744] ({CH2CO}-[Ala(morpholin-4-yl)][Phe(4-COOH)]D[Phe(3-CF3)][hPhe][Bip][Phe(4-COOH)][Orn][dL][Dab][Cha]VEC[Dab]-NH2; thioether N-14): the IC50 (commonly the concentration needed to halve the response being measured) was 0.0034 µM.

Take `Cc1cccc(C[C@@H]2NC(=O)[C@H](CC(=O)O)NC(=O)[C@H](Cc3ccc(OCC(=O)O)cc3)NC(=O)[C@H](C(C)O)NC(=O)CSC[C@@H](C(=O)N[C@H](CC(N)=O)C(N)=O)NC(=O)[C@H](C(C)O)NC(=O)[C@H](C(C)C)NC(=O)[C@H](CC3CCCCC3)NC(=O)[C@H](CCN)NC(=O)[C@@H](CC(C)C)NC(=O)[C@H](CCCN)NC(=O)[C@H](Cc3ccc(OCC(=O)O)cc3)NC(=O)[C@H](Cc3ccc(-c4ccccc4)cc3)NC(=O)[C@H](Cc3ccc(OCC(=O)O)cc3)NC2=O)c1` (stereo partly drawn) [Compound 2640] ({CH2CO}-[Thr(3ξ)]Y(Carboxymethyl)D[Phe(3-Me)]Y(Carboxymethyl)[Bip]Y(Carboxymethyl)[Orn][dL][Dab][Cha]V[Thr(3ξ)]C[dN]-NH2; thioether N-14): the IC50 is 0.035 µM.

Take `CC(C)C[C@H]1NC(=O)[C@H](CCCN)NC(=O)[C@H](CCCNC(N)=O)NC(=O)[C@H](Cc2ccc(-c3ccccc3)cc2)NC(=O)[C@H](C(C)C)NC(=O)[C@H](Cc2c[nH]c3ccccc23)NC(=O)[C@H](CC(=O)O)NC(=O)[C@H](CCc2ccccc2)NC(=O)[C@H](CN)NC(=O)CSC[C@@H](C(=O)N[C@@H](C)C(N)=O)NC(=O)[C@H]([C@@H](C)O)NC(=O)[C@H](C(C)C)NC(=O)[C@H](CC2CCCCC2)NC(=O)[C@H](CCN)NC1=O` [Compound 2126] ({CH2CO}-[Dap][hPhe]DWV[Bip][Cit][Orn][dL][Dab][Cha]VTCA-NH2; thioether N-14): the IC50 came out at 0.0079 µM.

In the case of `Cc1cccc(C[C@@H]2NC(=O)[C@H](CC(=O)O)NC(=O)[C@H](Cc3ccc(OCC(=O)O)cc3)NC(=O)[C@H](CN)NC(=O)CSC[C@@H](C(N)=O)NC(=O)[C@H](CCC(N)=O)NC(=O)[C@H](C(C)C)NC(=O)[C@H](CC3CCCCC3)NC(=O)[C@H](CCN)NC(=O)[C@@H](CC(C)C)NC(=O)[C@H](CCCN)NC(=O)[C@H](Cc3ccc(OCC(=O)O)cc3)NC(=O)[C@H](Cc3ccc(-c4ccccc4)cc3)NC(=O)[C@H](Cc3ccc(OCC(=O)O)cc3)NC2=O)c1` [Compound 1782] ({CH2CO}-[Dap]Y(Carboxymethyl)D[Phe(3-Me)]Y(Carboxymethyl)[Bip]Y(Carboxymethyl)[Orn][dL][Dab][Cha]VQC-NH2; thioether N-14), the IC50 came to 0.0236 µM.

Regarding `CCCC[C@@H]1NC(=O)[C@H](Cc2c[nH]c3ccccc23)NC(=O)[C@H](CC(=O)O)NC(=O)[C@H](Cc2ccc(OCC(=O)O)cc2)NC(=O)[C@H](CN)NC(=O)CSC[C@@H](C(=O)N[C@@H](C)C(N)=O)NC(=O)[C@H]([C@@H](C)O)NC(=O)[C@H](C(C)C)NC(=O)[C@H](CC2CCCCC2)NC(=O)[C@H](CCN)NC(=O)[C@@H](CC(C)C)NC(=O)[C@H](CCCN)NC(=O)[C@H](CCCNC(N)=O)NC(=O)[C@H](Cc2ccc(-c3ccccc3)cc2)NC1=O` [Compound 1358] ({CH2CO}-[Dap]Y(Carboxymethyl)DW[Nle][Bip][Cit][Orn][dL][Dab][Cha]VTCA-NH2; thioether N-14), the IC50 is 0.0073 µM.

With `CC(C)C[C@H]1NC(=O)[C@H](CCCN)NC(=O)[C@H](C(C)C)NC(=O)[C@H](Cc2ccc(-c3ccccc3)cc2)NC(=O)[C@H](C(C)C)NC(=O)[C@H](Cc2c[nH]c3ccccc23)NC(=O)[C@H](CC(=O)O)NC(=O)[C@H](Cc2ccc(OCC(=O)O)cc2)NC(=O)[C@H](C(C)O)NC(=O)CSC[C@@H](C(=O)N[C@@H](C)C(N)=O)NC(=O)[C@H](C(C)O)NC(=O)[C@H](C(C)C)NC(=O)C(CC2CCCCC2)NC(=O)[C@H](CCN)NC1=O` (some centres unmarked) [Compound 2511], the IC50 was determined as 0.0051 µM.

With `CC(C)C[C@@H]1NC(=O)[C@H](CCN)NC(=O)[C@@H](CC(C)C)NC(=O)[C@H](CCCN)NC(=O)[C@H](CCCNC(N)=O)NC(=O)[C@H](Cc2ccc(-c3ccccc3)cc2)NC(=O)[C@H](C(C)C)NC(=O)[C@H](Cc2c[nH]c3ccccc23)NC(=O)[C@H](CC(=O)O)NC(=O)[C@H](Cc2ccc(C(=O)O)cc2)NC(=O)[C@H](CN)NC(=O)CSC[C@@H](C(=O)N[C@@H](C)C(N)=O)NC(=O)[C@H]([C@@H](C)O)NC(=O)[C@H](C(C)C)NC1=O` [Compound 1043] ({CH2CO}-[Dap][Phe(4-COOH)]DWV[Bip][Cit][Orn][dL][Dab]LVTCA-NH2; thioether N-14), the IC50 is 0.0319 µM.

As to `CC[C@H](C)[C@@H]1NC(=O)[C@H](Cc2ccc(-c3ccccc3)cc2)NC(=O)[C@H](C(C)C)NC(=O)[C@H](Cc2c[nH]c3ccccc23)NC(=O)[C@H](CC(=O)O)NC(=O)[C@H](Cc2ccc(C(=O)O)cc2)NC(=O)[C@H](Cc2ccc(OCC(=O)O)cc2)NC(=O)CSC[C@@H](C(=O)N[C@@H](C)C(N)=O)NC(=O)[C@H]([C@@H](C)O)NC(=O)[C@H](C(C)C)NC(=O)[C@H](Cc2ccccc2)NC(=O)[C@H](CCN)NC(=O)[C@@H](CC(C)C)NC(=O)[C@H](CCCN)NC1=O` [Compound 1659] ({CH2CO}-Y(Carboxymethyl)[Phe(4-COOH)]DWV[Bip]I[Orn][dL][Dab]FVTCA-NH2; thioether N-14), the IC50 was 0.0091 µM.

For `Cc1cccc(C[C@@H]2NC(=O)[C@H](CC(=O)O)NC(=O)[C@H](Cc3ccncc3)NC(=O)[C@H](CN)NC(=O)CSC[C@@H](C(=O)N[C@@H](C)C(N)=O)NC(=O)[C@H]([C@@H](C)O)NC(=O)[C@H](C(C)C)NC(=O)[C@H](CC3CCCCC3)NC(=O)[C@H](CCN)NC(=O)[C@@H](Cc3ccccc3)NC(=O)[C@H](CCCN)NC(=O)[C@H](CCC(=O)O)NC(=O)[C@H](Cc3ccc(-c4ccccc4)cc3)NC(=O)[C@H](C(C)C)NC2=O)c1` [Compound 1429] ({CH2CO}-[Dap][4Pal]D[Phe(3-Me)]V[Bip]E[Orn][dF][Dab][Cha]VTCA-NH2; thioether N-14), the IC50 stood at 0.0095 µM.

In the case of `Cc1cccc(C[C@@H]2NC(=O)[C@H](CCN)NC(=O)[C@@H](CC(C)C)NC(=O)[C@H](CCCN)NC(=O)[C@H](CCC(=O)O)NC(=O)[C@H](Cc3ccc(-c4ccccc4)cc3)NC(=O)[C@H](C(C)C)NC(=O)[C@H](Cc3c[nH]c4ccccc34)NC(=O)[C@H](CC(=O)O)NC(=O)[C@H](Cc3ccc(OCC(=O)O)cc3)NC(=O)[C@H](CN)NC(=O)CSC[C@@H](C(=O)N[C@@H](C)C(N)=O)NC(=O)[C@H]([C@@H](C)O)NC(=O)[C@H](C(C)C)NC2=O)c1` [Compound 1470] ({CH2CO}-[Dap]Y(Carboxymethyl)DWV[Bip]E[Orn][dL][Dab][Phe(3-Me)]VTCA-NH2; thioether N-14), the IC50 was found to be 0.0546 µM.

With `C#CC[C@H](NC(=O)CC[C@H](NC(=O)[C@H](C)NC(=O)[C@@H]1CSCC(=O)N[C@@H](CN)C(=O)N[C@@H](Cc2ccc(OCC(=O)O)cc2)C(=O)N[C@@H](CC(=O)O)C(=O)N[C@@H](Cc2cccc(C)c2)C(=O)N[C@@H](Cc2ccc(OCC(=O)O)cc2)C(=O)N[C@@H](Cc2ccc(-c3ccccc3)cc2)C(=O)N[C@@H](Cc2ccc(OCC(=O)O)cc2)C(=O)N[C@@H](CCCN)C(=O)N[C@H](CC(C)C)C(=O)N[C@@H](CCN)C(=O)N[C@@H](CC2CCCCC2)C(=O)N[C@@H](C(C)C)C(=O)N[C@@H]([C@@H](C)O)C(=O)N1)C(=O)O)C(N)=O` [Compound 1807] ({CH2CO}-[Dap]Y(Carboxymethyl)D[Phe(3-Me)]Y(Carboxymethyl)[Bip]Y(Carboxymethyl)[Orn][dL][Dab][Cha]VTCA[γGlu][Pra]-NH2; thioether N-14), the 50% inhibitory concentration (IC50) turned out to be 0.0046 µM.

For `CCCC[C@@H]1NC(=O)[C@H](CC(N)=O)NC(=O)[C@@H](CC(C)C)NC(=O)[C@H](CCCN)NC(=O)[C@H](C(C)C)NC(=O)[C@H](Cc2ccc(-c3ccccc3)cc2)NC(=O)[C@H](CC(C)C)NC(=O)[C@H](Cc2c[nH]c3ccccc23)NC(=O)[C@H](CC(=O)O)NC(=O)[C@H](Cc2ccc(C(=O)O)cc2)NC(=O)[C@H](Cc2ccc(OCC(=O)O)cc2)NC(=O)CSC[C@@H](C(=O)NCC(N)=O)NC(=O)[C@H](CO)NC(=O)[C@H](C(C)C)NC1=O` [Compound 1340] ({CH2CO}-Y(Carboxymethyl)[Phe(4-COOH)]DWL[Bip]V[Orn][dL]N[Nle]VSCG-NH2; thioether N-14), the IC50 is 0.0217 µM.

On to `CC(C)C[C@H]1NC(=O)[C@H](CCCN)NC(=O)[C@H](CCC(=O)O)NC(=O)[C@H](Cc2ccc(-c3ccccc3)cc2)NC(=O)[C@H](C(C)C)NC(=O)[C@H](Cc2c[nH]c3ccccc23)NC(=O)[C@H](CC(=O)O)NC(=O)[C@H](Cc2ccc(N)cc2)NC(=O)[C@H](Cc2ccc(OCC(=O)O)cc2)NC(=O)CSC[C@@H](C(=O)N[C@@H](C)C(N)=O)NC(=O)[C@H]([C@@H](C)O)NC(=O)[C@H](C(C)C)NC(=O)[C@H](CC2CCCCC2)NC(=O)[C@H](CCN)NC1=O` [Compound 2183], for which the IC50 came to 0.0194 µM.

`CC[C@@H](C)[C@@H]1NC(=O)[C@H](Cc2ccc(-c3ccccc3)cc2)NC(=O)[C@H](C(C)C)NC(=O)[C@H](Cc2c[nH]c3ccccc23)NC(=O)[C@H](CC(=O)O)NC(=O)[C@H](Cc2ccc(OCC(=O)O)cc2)NC(=O)[C@H](Cc2ccncc2)NC(=O)CSC[C@@H](C(=O)N[C@@H](C)C(N)=O)NC(=O)[C@H]([C@@H](C)O)NC(=O)[C@H](C(C)C)NC(=O)[C@H](CC2CCCCC2)NC(=O)[C@H](CCN)NC(=O)[C@@H](CC2CCCCC2)NC(=O)[C@H](CCCN)NC1=O` [Compound 1628] ({CH2CO}-[4Pal]Y(Carboxymethyl)DWV[Bip][aIle][Orn][dCha][Dab][Cha]VTCA-NH2; thioether N-14): the 50% inhibitory concentration (IC50) came out at 0.0249 µM.
